Patent US20080242870A1 (priority 2006, published 2008)
Values joined by “and” are separate entries in the source; they are usually repeats but may differ in a detail not shown here. Identical values can stand only once.

Legend:
Type in all cases: physicochemical
[1] = Sub-ambient (77 K) emission in 2-methyltetrahydrofuran; settings: for emission bands: 2-methyltetrahydrofuran, 405 nm excitation
Procedure: FIGS. 7a and 7b show normalized emission spectra for the diphenyl anthracene diimides (top) and the tetraphenyl anthracene diimides (bottom) at 77° K in 2-methyltetrahydrofuran and 405 nm excitation.
In an attempt to better understand the excited state properties of the diphenyl and tetraphenyl anthracene diimides, sub-ambient (77 K) emission experiments were performed, with the results shown in FIGS. 7a and 7b. In the case of the diphenyl derivatives, DPO (35), DP (37), and DC (39) display similar emission spectra with overlapping bands near 434 nm, […], and 492 nm. Although the peak ratios differ slightly, the band shapes and positions are nearly identical. […] Similar results are observed for the tetraphenyl series. Here, TPO (40) and TP (41) display spectral features analogous to DPO (35), DP (37), and DC (39), but at lower energy.

[2] = Radiative quantum yield against standards (Example 1)
Procedure: (§1) Unless otherwise stated, all experiments used optically dilute solutions (Optical Density (OD)<0.2) at room temperature. […] Emission spectra were obtained with an Aminco-Bowman luminescence spectrometer (Series 2). The excitation was accomplished with a 150 W Xe lamp optically coupled to a monochrometer (+2 nm). The emission was collected at […] and passed through a second monochrometer (±2 nm). Luminescence was measured with a photomultiplier tube (PMT).

[3] = Luminescence lifetime by TCSPC (Example 1); settings: TCSPC 370 nm pulsed LED
Procedure: Luminescence lifetimes were measured with an IBH time-correlated single photon counting (TCSPC) system equipped with an IBH Model TBX-04 Photon Detection Module. The excitation source for the TCSPC measurements was a pulsed LED (IBH NanoLED, 455 nm, 1.3 ns pulse duration or 403 nm, <200 ps pulse duration) with a repetition rate of 1 MHz. All data was analyzed by iterative reconvolution of the decay profile (10,000 counts at the peak channel) with the instrument response function using software provided by the instrument manufacturer.

[4] = Absorption spectra of anthracene diimides in solvents of increasing polarity (Example 1)
[5] = Stokes shift / Lippert-Mataga solvatochromic analysis
Source text: The solvatochromic response of the anthracene diimides to photoexcitation was further characterized by analysis of the Stokes' shift and Lippert-Mataga polarity parameter,
where v is the Stokes' shift in wavenumbers, h is Plank's constant, c is the speed of light, ∈0 is the permittivity of free space, Δμ is the change in the dipole moment upon excitation, α^3 is the molecule's volume, as is the solvent dielectric constant, and n is the solvent refractive index. This relationship quantifies the change in dipole between the ground state and excited state of a molecule and, when used with the calculated ground state dipole, the magnitude of the excited state dipole moment may be estimated. Each line represents a solvatochromic emission component of the corresponding diimide. All other bands were not solvatochromic and not included in the analysis. For example, the emission spectra of DPO (35) in the selection of solvents were nearly identical and could not be used in the Lippert-Mataga correlations. DP (37) had two components in the emission profiles; a higher energy band that quickly disappeared with increasing solvent polarity and a lower energy component that red-shifted with increasing solvent polarity.

[6] = Emission spectra of anthracene diimides at room temperature (Example 1); settings: for Em. λmax: (p) peak, (s) shoulder
Procedure: as §1

CCCCCCOc1ccc(-n2c(=O)c3cc4cc5c(-c6ccc(C#N)cc6)c6c(=O)n(-c7ccc(OCCCCCC)cc7)c(=O)c6cc5cc4c(-c4ccc(C#N)cc4)c3c2=O)cc1 [DC]
emission bands ([1]; listed as DC (39)): ~434 nm and ~461 nm and ~492 nm | Φr ([2]; ACN (38.8)): 0.0051 | Φr ([2]; Acetone (20.1)): 0.0062 | Φr ([2]; C2H4Cl2 (10.7)): 0.017 | Φr ([2]; CHCl3 (4.8)): 0.025 | Φr ([2]; Ethyl Acetate (6.02)): 0.012 | Φr ([2]; THF (7.6)): 0.013 | Φr ([2]; Toluene (2.4)): 0.046 | 1τ ([3]; ACN (38.8)): <0.20 ns | 1τ ([3]; Acetone (20.1)): <0.20 ns | 1τ ([3]; C2H4Cl2 (10.7)): 0.21 ns | 1τ ([3]; CHCl3 (4.8)): 0.27 ns | 1τ ([3]; Ethyl Acetate (6.02)): <0.20 ns | 1τ ([3]; THF (7.6)): <0.20 ns | 1τ ([3]; Toluene (2.4)): 0.39 ns | Abs. λmax ([4]; ACN (38.8)): 423 nm | Abs. λmax ([4]; Acetone (20.1)): 423 nm | Abs. λmax ([4]; C2H4Cl2 (10.7)): 425 nm | Abs. λmax ([4]; CHCl3 (4.8)): 425 nm | Abs. λmax ([4]; Ethyl Acetate (6.02)): 418 nm | Abs. λmax ([4]; THF (7.6)): 420 nm | Abs. λmax ([4]; Toluene (2.4)): 417 nm | calculated dipole change (Δμ) ([5]; Lippert-Mataga correlation): 31.1 D | Stokes' shift of charge transfer excited state ([5]; from toluene to acetonitrile): 95 nm | Em. λmax ([6]; ACN (38.8)): 600(p) nm | Em. λmax ([6]; Acetone (20.1)): 599(p) nm | Em. λmax ([6]; C2H4Cl2 (10.7)): 571(p) nm | Em. λmax ([6]; CHCl3 (4.8)): 555(p) nm and 504(s) nm | Em. λmax ([6]; Ethyl Acetate (6.02)): 573(p) nm | Em. λmax ([6]; THF (7.6)): 579(p) nm | Em. λmax ([6]; Toluene (2.4)): 505(s) nm and 543(p) nm

CCCCCCCCn1c(=O)c2cc3cc4c(-c5ccccc5)c5c(=O)n(CCCCCCCC)c(=O)c5cc4cc3c(-c3ccccc3)c2c1=O [DPO]
emission bands ([1]; listed as DPO (35)): ~434 nm and ~461 nm and ~492 nm | Φr ([2]; ACN (38.8)): 0.46 | Φr ([2]; Acetone (20.1)): 0.37 | Φr ([2]; C2H4Cl2 (10.7)): 0.46 | Φr ([2]; CHCl3 (4.8)): 0.36 | Φr ([2]; Ethyl Acetate (6.02)): 0.34 | Φr ([2]; THF (7.6)): 0.37 | Φr ([2]; Toluene (2.4)): 0.35 | 1τ ([3]; ACN (38.8)): 8.03 ns | 1τ ([3]; Acetone (20.1)): 7.29 ns | 1τ ([3]; C2H4Cl2 (10.7)): 5.60 ns | 1τ ([3]; CHCl3 (4.8)): 5.79 ns | 1τ ([3]; Ethyl Acetate (6.02)): 6.90 ns | 1τ ([3]; THF (7.6)): 6.71 ns | 1τ ([3]; Toluene (2.4)): 6.36 ns | Abs. λmax ([4]; ACN (38.8)): 423 nm | Abs. λmax ([4]; Acetone (20.1)): 421 nm | Abs. λmax ([4]; C2H4Cl2 (10.7)): 424 nm | Abs. λmax ([4]; CHCl3 (4.8)): 426 nm | Abs. λmax ([4]; Ethyl Acetate (6.02)): 420 nm | Abs. λmax ([4]; THF (7.6)): 421 nm | Abs. λmax ([4]; Toluene (2.4)): 422 nm | Em. λmax ([6]; ACN (38.8)): 435(p) nm | Em. λmax ([6]; Acetone (20.1)): 435(p) nm | Em. λmax ([6]; C2H4Cl2 (10.7)): 436(p) nm | Em. λmax ([6]; CHCl3 (4.8)): 437(p) nm | Em. λmax ([6]; Ethyl Acetate (6.02)): 433(p) nm | Em. λmax ([6]; THF (7.6)): 435(p) nm | Em. λmax ([6]; Toluene (2.4)): 437(p) nm

CCCCCCCCn1c(=O)c2c(-c3ccccc3)c3cc4c(-c5ccccc5)c5c(=O)n(CCCCCCCC)c(=O)c5c(-c5ccccc5)c4cc3c(-c3ccccc3)c2c1=O [TPO]
Φr ([2]; ACN (38.8)): 0.24 | Φr ([2]; Acetone (20.1)): 0.21 | Φr ([2]; C2H4Cl2 (10.7)): 0.23 | Φr ([2]; CHCl3 (4.8)): 0.26 | Φr ([2]; Ethyl Acetate (6.02)): 0.21 | Φr ([2]; THF (7.6)): 0.20 | Φr ([2]; Toluene (2.4)): 0.19 | 1τ ([3]; ACN (38.8)): 3.84 ns | 1τ ([3]; Acetone (20.1)): 3.34 ns | 1τ ([3]; C2H4Cl2 (10.7)): 3.19 ns | 1τ ([3]; CHCl3 (4.8)): 3.54 ns | 1τ ([3]; Ethyl Acetate (6.02)): 3.12 ns | 1τ ([3]; THF (7.6)): 3.03 ns | 1τ ([3]; Toluene (2.4)): 2.77 ns | Abs. λmax ([4]; ACN (38.8)): 428 nm | Abs. λmax ([4]; Acetone (20.1)): 427 nm | Abs. λmax ([4]; C2H4Cl2 (10.7)): 430 nm | Abs. λmax ([4]; CHCl3 (4.8)): 432 nm | Abs. λmax ([4]; Ethyl Acetate (6.02)): 426 nm | Abs. λmax ([4]; THF (7.6)): 427 nm | Abs. λmax ([4]; Toluene (2.4)): 428 nm | Em. λmax ([6]; ACN (38.8)): 443(p) nm and 468(p) nm | Em. λmax ([6]; Acetone (20.1)): 443(p) nm and 466(p) nm | Em. λmax ([6]; C2H4Cl2 (10.7)): 445(p) nm and 470(p) nm | Em. λmax ([6]; CHCl3 (4.8)): 447(p) nm and 471(p) nm | Em. λmax ([6]; Ethyl Acetate (6.02)): 442(p) nm and 465(p) nm | Em. λmax ([6]; THF (7.6)): 445(p) nm and 467(p) nm | Em. λmax ([6]; Toluene (2.4)): 447(p) nm and 468(p) nm | emission band position ([6]; room temperature, all solvents): ~428 nm

CCCCCCOc1ccc(-n2c(=O)c3c(-c4ccccc4)c4cc5c(-c6ccccc6)c6c(=O)n(-c7ccc(OCCCCCC)cc7)c(=O)c6c(-c6ccccc6)c5cc4c(-c4ccccc4)c3c2=O)cc1 [TP]
Φr ([2]; ACN (38.8)): 0.0080 | Φr ([2]; Acetone (20.1)): 0.011 | Φr ([2]; C2H4Cl2 (10.7)): 0.029 | Φr ([2]; CHCl3 (4.8)): 0.08 | Φr ([2]; Ethyl Acetate (6.02)): 0.023 | Φr ([2]; THF (7.6)): 0.027 | Φr ([2]; Toluene (2.4)): 0.21 | 1τ ([3]; Toluene (2.4)): 1.03 ns | Abs. λmax ([4]; ACN (38.8)): 431 nm | Abs. λmax ([4]; Acetone (20.1)): 429 nm | Abs. λmax ([4]; C2H4Cl2 (10.7)): 435 nm | Abs. λmax ([4]; CHCl3 (4.8)): 435 nm | Abs. λmax ([4]; Ethyl Acetate (6.02)): 428 nm | Abs. λmax ([4]; THF (7.6)): 429 nm | Abs. λmax ([4]; Toluene (2.4)): 431 nm | Em. λmax ([6]; ACN (38.8)): 456(p) nm and 474(s) nm and 585(p) nm | Em. λmax ([6]; Acetone (20.1)): 454(p) nm and 576(p) nm | Em. λmax ([6]; C2H4Cl2 (10.7)): 450(p) nm and 478(p) nm and 497(p) nm and 549(p) nm | Em. λmax ([6]; CHCl3 (4.8)): 450(p) nm and 482(p) nm and 564(p) nm | Em. λmax ([6]; Ethyl Acetate (6.02)): 448(s) nm and 499(s) nm and 549(p) nm | Em. λmax ([6]; THF (7.6)): 459(s) nm and 499(s) nm and 552(p) nm | Em. λmax ([6]; Toluene (2.4)): 482(p) nm and 520(s) nm | Em. λmax ([6]; Toluene (2.4), listed as TP (41)): ~431 nm

CCCCCCOc1ccc(-n2c(=O)c3cc4cc5c(-c6ccc(OC)cc6)c6c(=O)n(-c7ccc(OCCCCCC)cc7)c(=O)c6cc5cc4c(-c4ccc(OC)cc4)c3c2=O)cc1 [DM]
red shift of emission spectrum ([1]; relative to the other members of the series): 13 nm | Φr ([2]; ACN (38.8)): 0.0087 | Φr ([2]; Acetone (20.1)): 0.011 | Φr ([2]; C2H4Cl2 (10.7)): 0.030 | Φr ([2]; CHCl3 (4.8)): 0.064 | Φr ([2]; Ethyl Acetate (6.02)): 0.028 | Φr ([2]; THF (7.6)): 0.021 | Φr ([2]; Toluene (2.4)): 0.18 | 1τ ([3]; C2H4Cl2 (10.7)): 0.34 ns | 1τ ([3]; CHCl3 (4.8)): 0.59 ns | 1τ ([3]; Toluene (2.4)): 1.25 ns | Abs. λmax ([4]; ACN (38.8)): 427 nm | Abs. λmax ([4]; Acetone (20.1)): 426 nm | Abs. λmax ([4]; C2H4Cl2 (10.7)): 430 nm | Abs. λmax ([4]; CHCl3 (4.8)): 431 nm | Abs. λmax ([4]; Ethyl Acetate (6.02)): 425 nm | Abs. λmax ([4]; THF (7.6)): 426 nm | Abs. λmax ([4]; Toluene (2.4)): 428 nm | Em. λmax ([6]; ACN (38.8)): 463(p) nm and 487(s) nm and 551(p) nm | Em. λmax ([6]; Acetone (20.1)): 463(p) nm and 492(p) nm and 554(p) nm | Em. λmax ([6]; C2H4Cl2 (10.7)): 463(p) nm and 490(s) nm and 526(p) nm | Em. λmax ([6]; CHCl3 (4.8)): 491(s) nm and 465(p) nm | Em. λmax ([6]; Ethyl Acetate (6.02)): 463(p) nm and 488(p) nm and 526(p) nm | Em. λmax ([6]; THF (7.6)): 463(p) nm and 494(p) nm and 538(p) nm | Em. λmax ([6]; Toluene (2.4)): 462(p) nm and 488(s) nm
